≈ marks a conversion by molar mass, not a printed value.
What was measured:
Assay in all cases: Agar dilution MIC in DST agar (Ericsson and Sherris)
Format in all cases: cell-based
Escherichia coli 205 = details: Escherichia coli, 205, in vitro, read-out: MIC Esch. 205
Excerpt: (§1) Die antibiotische Aktivität der Testverbindungen in vitro wurde durch die Agarverdünnungsmethode nach Ericsson, H.M., und Sherris, S.C., 1971, Acta Path. Microb. Scand. Section B, Suppl. No. 217, Bd. 1-90, in DST Agara ermittelt. Die gefundenen, das Wachstum der Testorganismen noch hemmenden Minimalkonzentrationen (MIC = minimum inhibiting concentrations) werden in Mikrogramm pro Milliliter (µg/ml) für die geprüften Verbindungen in der Tabelle 1 angegeben.

Proteus morganii 2359 = details: Morganella morganii, 2359, in vitro, read-out: MIC Prot. 2359
Excerpt: as §1

Proteus morganii 1518 = details: Morganella morganii, 1518, in vitro, read-out: MIC Prot. 1518
Excerpt: as §1

[1] = tested on: Staphylococcus aureus 10B; details: Staphylococcus aureus, 10B, in vitro, read-out: MIC Staph. 10B
Excerpt: as §1

Escherichia coli 2018 = details: Escherichia coli, 2018, in vitro, read-out: MIC Esch. 2018
Excerpt: as §1

[2] = tested on: Pseudomonas aeruginosa K 799/61; details: Pseudomonas aeruginosa, K799/61, read-out: MIC Pseu. 799
Excerpt: as §1

[3] = tested on: Staphylococcus aureus 2999; details: Staphylococcus aureus, 2999, in vitro, read-out: MIC Staph. 2999
Excerpt: as §1

[4] = tested on: Salmonella Typhimurium 277; details: Salmonella enterica, TYPHIMURIUM, in vitro, read-out: MIC Salm. 277
Excerpt: as §1

Compound | MIC (Escherichia coli 205) [µg/mL] | MIC (Proteus morganii 2359) [µg/mL] | MIC (Proteus morganii 1518) [µg/mL] | MIC [1] [µg/mL] | MIC (Escherichia coli 2018) [µg/mL] | MIC [2] [µg/mL] | MIC [3] [µg/mL] | MIC [4] [µg/mL]
CO[C@H]1/C=C/O[C@@]2(C)Oc3c(C)c(O)c4c(O)c(c5[nH]c(N(C)C6CCN(C)CC6)nc5c4c3C2=O)NC(=O)/C(C)=C\C=C\[C@H](C)[C@H](O)[C@@H](C)[C@@H](O)[C@@H](C)[C@H](OC(C)=O)[C@@H]1C [Verbindung 13] | 8 (≈ 9.43 µM) | 16 (≈ 18.9 µM) | 16 (≈ 18.9 µM) | 0.05 (≈ 0.059 µM) | 8 (≈ 9.43 µM) | 8 (≈ 9.43 µM) | 0.05 (≈ 0.059 µM) | 32 (≈ 37.7 µM)
CCN(CCO)c1nc2c([nH]1)c1c(O)c3c(O)c(C)c4c(c32)C(=O)[C@@](C)(O/C=C/[C@H](OC)[C@@H](C)[C@@H](OC(C)=O)[C@H](C)[C@H](O)[C@H](C)[C@@H](O)[C@@H](C)/C=C/C=C(/C)C(=O)N1)O4 [Verbindung 14, 4-[N-Ethyl-N-(2-hydroxyethyl)-amino]-imidazolo[4,5-c]rifamycin SV] | 8 (≈ 9.89 µM) | 16 (≈ 19.8 µM) | 16 (≈ 19.8 µM) | 0.05 (≈ 0.0618 µM) | 16 (≈ 19.8 µM) | 16 (≈ 19.8 µM) | 0.01 (≈ 0.0124 µM) | 32 (≈ 39.6 µM)
COC(CN(C)c1nc2c([nH]1)c1c(O)c3c(O)c(C)c4c(c32)C(=O)[C@@](C)(O/C=C/[C@H](OC)[C@@H](C)[C@@H](OC(C)=O)[C@H](C)[C@H](O)[C@H](C)[C@@H](O)[C@@H](C)/C=C/C=C(/C)C(=O)N1)O4)OC [Verbindung 15, 4-[N-(2,2-Dimethoxyethyl)-N-methylamino]-imidazolo[4,5-c]-rifamycin SV] | 8 (≈ 9.54 µM) | 4 (≈ 4.77 µM) | 8 (≈ 9.54 µM) | 0.005 (≈ 0.00596 µM) | 8 (≈ 9.54 µM) | 16 (≈ 19.1 µM) | 0.005 (≈ 0.00596 µM) | 32 (≈ 38.1 µM)
COCCN(CCOC)c1nc2c([nH]1)c1c(O)c3c(O)c(C)c4c(c32)C(=O)[C@@](C)(O/C=C/[C@H](OC)[C@@H](C)[C@@H](OC(C)=O)[C@H](C)[C@H](O)[C@H](C)[C@@H](O)[C@@H](C)/C=C/C=C(/C)C(=O)N1)O4 [Verbindung 16, 4-[N-Di-(2-methoxyethyl)-amino]-imidazolo[4,5-c]rifamycin SV] | 8 (≈ 9.38 µM) | 4 (≈ 4.69 µM) | 2 (≈ 2.34 µM) | 0.01 (≈ 0.0117 µM) | 8 (≈ 9.38 µM) | 8 (≈ 9.38 µM) | 0.01 (≈ 0.0117 µM) | 32 (≈ 37.5 µM)
CO[C@H]1/C=C/O[C@@]2(C)Oc3c(C)c(O)c4c(O)c(c5[nH]c(N(C)CCN(C)C)nc5c4c3C2=O)NC(=O)/C(C)=C\C=C\[C@H](C)[C@H](O)[C@@H](C)[C@@H](O)[C@@H](C)[C@H](OC(C)=O)[C@@H]1C [Verbindung 17, 4-[N-Methyl-N-(2-dimethylaminoethyl)-amino]-imidazolo-[4,5-c]rifamycin SV] | 32 (≈ 38.9 µM) | 32 (≈ 38.9 µM) | 64 (≈ 77.9 µM) | 0.005 (≈ 0.00608 µM) | 64 (≈ 77.9 µM) | 64 (≈ 77.9 µM) | 0.005 (≈ 0.00608 µM) | 64 (≈ 77.9 µM)
CO[C@H]1/C=C/O[C@@]2(C)Oc3c(C)c(O)c4c(O)c(c5[nH]c(N6CCCCC6)nc5c4c3C2=O)NC(=O)/C(C)=C\C=C\[C@H](C)[C@H](O)[C@@H](C)[C@@H](O)[C@@H](C)[C@H](OC(C)=O)[C@@H]1C [Verbindung 21, 4-Piperidino-imidazolo[4,5-c]rifamycin SV] | 4 (≈ 4.97 µM) | 4 (≈ 4.97 µM) | 4 (≈ 4.97 µM) | 0.005 (≈ 0.00621 µM) | 4 (≈ 4.97 µM) | 16 (≈ 19.9 µM) | 0.005 (≈ 0.00621 µM) | 16 (≈ 19.9 µM)
CCOC(=O)C1CCN(c2nc3c([nH]2)c2c(O)c4c(O)c(C)c5c(c43)C(=O)[C@@](C)(O/C=C/[C@H](OC)[C@@H](C)[C@@H](OC(C)=O)[C@H](C)[C@H](O)[C@H](C)[C@@H](O)[C@@H](C)/C=C/C=C(/C)C(=O)N2)O5)CC1 [Verbindung 22, 4-(4-Ethoxycarbonyl-1-piperidyl)-imidazolo[4,5-c]rifamycin SV] | 16 (≈ 18.2 µM) | 4 (≈ 4.56 µM) | 4 (≈ 4.56 µM) | 0.005 (≈ 0.0057 µM) | 8 (≈ 9.12 µM) | 16 (≈ 18.2 µM) | 0.005 (≈ 0.0057 µM) | 32 (≈ 36.5 µM)
CO[C@H]1/C=C/O[C@@]2(C)Oc3c(C)c(O)c4c(O)c(c5[nH]c(N6CCC(N(C)C)CC6)nc5c4c3C2=O)NC(=O)/C(C)=C\C=C\[C@H](C)[C@H](O)[C@@H](C)[C@@H](O)[C@@H](C)[C@H](OC(C)=O)[C@@H]1C [Verbindung 23, 4-(4-Dimethylamino-l-piperidyl)-imidazolo[4,5-c]rifamycin SV] | 16 (≈ 18.9 µM) | 16 (≈ 18.9 µM) | 16 (≈ 18.9 µM) | 0.1 (≈ 0.118 µM) | 8 (≈ 9.43 µM) | 16 (≈ 18.9 µM) | 0.1 (≈ 0.118 µM) | 16 (≈ 18.9 µM)

Reference: patent publication EP0049683A2, “Imidazo-rifamycines, process for their preparation, pharmaceutical preparations containing them and their use” (CIBA-GEIGY AG, priority 1980, dated 1982)
